Measured values: US8309546B2, “Morpholinopurine derivatives” (Daiichi Sankyo Company, Limited, priority 2008, dated 2012)

Columns and labels:
[1] = system: human ovary cancer cell strain IGROV1; experiment: Cell growth inhibition test (MTT), IGROV1; assay type: cell-based; settings: IGROV-1, 72 h, IGROV1, 3 days culture, read-out: concentration exhibiting anti-cell effect (GI50)
Summary of the method: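 Living cells were counted by MTT reduction (4 h; formazan dissolved in DMSO, A540) after 3-day compound exposure at 37° C, 5% CO2. Seeding was 5000 (AN3CA), 1000 (IGROV1) or 5000 (HT29) cells/well, dosing the following day. Growth rate T/C % used pre-dose baseline; GI50 interpolated at 50%.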

[2] = molecular target: T1, human mTOR (His-tagged mTOR (1362C)) (Homo sapiens, UniProt P42345); experiment: mTOR kinase activity inhibition assay; assay type: biochemical; settings: HTRF, read-out: IC50 against mTOR
T1 construct: the 1362 to 2549 amino acid portion on the C terminus side of human mTOR; His tag (N); made in house
Summary of the method: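 Crude His-tagged mTOR (aa 1362–2549) from stable HEK293 cells, with 8 μg/ml biotinylated peptide in 50 mM HEPES pH 7.5, 20 mM MnCl2; compound diluted in 20 μM ATP solution, reaction 3 h at room temperature. Phospho-peptide detected by HTRF (anti-phospho-S6K Thr389 cryptate/streptavidin-XL665, overnight at 4°C), 665/620 nm ratio. IC50 derived from curve fit of % inhibition.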

T1 sequence (P42345 1362-2549): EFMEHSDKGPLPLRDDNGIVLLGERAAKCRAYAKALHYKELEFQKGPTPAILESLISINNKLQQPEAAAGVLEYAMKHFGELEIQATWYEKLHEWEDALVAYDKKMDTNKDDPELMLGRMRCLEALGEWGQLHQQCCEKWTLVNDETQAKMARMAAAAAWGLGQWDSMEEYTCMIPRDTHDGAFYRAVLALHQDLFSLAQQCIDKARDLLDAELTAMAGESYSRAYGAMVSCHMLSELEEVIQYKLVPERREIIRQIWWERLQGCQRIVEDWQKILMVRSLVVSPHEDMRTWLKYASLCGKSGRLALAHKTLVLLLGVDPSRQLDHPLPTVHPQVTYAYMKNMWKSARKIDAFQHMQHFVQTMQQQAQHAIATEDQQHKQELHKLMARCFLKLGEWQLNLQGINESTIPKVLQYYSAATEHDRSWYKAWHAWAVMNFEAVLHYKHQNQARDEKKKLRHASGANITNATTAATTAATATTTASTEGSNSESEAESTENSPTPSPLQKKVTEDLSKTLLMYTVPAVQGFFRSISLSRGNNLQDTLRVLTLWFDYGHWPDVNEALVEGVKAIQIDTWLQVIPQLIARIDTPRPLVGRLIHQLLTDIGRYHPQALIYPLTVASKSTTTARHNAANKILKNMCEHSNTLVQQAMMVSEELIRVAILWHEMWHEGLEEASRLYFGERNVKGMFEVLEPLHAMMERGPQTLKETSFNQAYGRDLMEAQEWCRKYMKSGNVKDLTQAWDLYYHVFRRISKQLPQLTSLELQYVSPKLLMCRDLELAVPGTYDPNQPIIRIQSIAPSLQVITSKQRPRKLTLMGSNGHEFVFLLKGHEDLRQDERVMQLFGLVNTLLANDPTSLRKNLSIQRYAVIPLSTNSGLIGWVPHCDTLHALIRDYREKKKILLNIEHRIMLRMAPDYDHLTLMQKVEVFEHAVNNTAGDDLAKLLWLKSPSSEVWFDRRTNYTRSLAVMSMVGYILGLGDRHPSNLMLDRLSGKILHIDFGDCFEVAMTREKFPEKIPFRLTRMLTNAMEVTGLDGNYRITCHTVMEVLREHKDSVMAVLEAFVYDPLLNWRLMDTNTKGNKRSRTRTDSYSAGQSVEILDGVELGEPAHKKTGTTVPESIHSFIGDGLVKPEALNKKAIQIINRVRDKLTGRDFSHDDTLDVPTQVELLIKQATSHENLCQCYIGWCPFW

| Compound | GI50 [1] | IC50 [2] |
| --- | --- | --- |
| CC[C@@H]1CN(c2nc3c(N4CCOCC4)nc(-c4cnc(N)nc4)nc3n2CC(F)(F)F)CCN1C(=O)[C@H](C)O [Example 79] | ≤ 5 µM | < 10 nM |
| CC(C)Cn1c(N2CCN(C(=O)C[C@@H](C)O)[C@H](C)C2)nc2c(N3CCOCC3)nc(-c3cnc(N)nc3)nc21 [Example 84, (2R)-4-{(2R)-4-[2-(2-Aminopyrimidin-5-yl)-9-isobutyl-6-morpholin-4-yl-9H-purin-8-yl]-2-methylpiperazin-1-yl}-4-oxobutan-2-ol] | ≤ 5 µM | 10 to 30 nM |
| CC(C)Cn1c(N2CCN(C(=O)C[C@H](C)O)[C@@H](C)C2)nc2c(N3CCOCC3)nc(-c3cnc(N)nc3)nc21 [Example 85, (2S)-4-{(2S)-4-[2-(2-Aminopyrimidin-5-yl)-9-isobutyl-6-morpholin-4-yl-9H-purin-8-yl]-2-methylpiperazin-1-yl}-4-oxobutan-2-ol] | ≤ 5 µM | < 10 nM |
| CC(C)Cn1c(N2CCN(C(=O)C[C@H](C)O)[C@H](C)C2)nc2c(N3CCOCC3)nc(-c3cnc(N)nc3)nc21 [Example 86, (2S)-4-{(2R)-4-[2-(2-Aminopyrimidin-5-yl)-9-isobutyl-6-morpholin-4-yl-9H-purin-8-yl]-2-methylpiperazin-1-yl}-4-oxobutan-2-ol] | ≤ 5 µM | 10 to 30 nM |
| CNc1ncc(-c2nc(N3CCOCC3)c3nc(N4CCN(CC(=O)N(C)C)[C@H](C)C4)n(CC(F)(F)F)c3n2)cn1 [Example 87, N,N-Dimethyl-2-[(2R)-2-methyl-4-{2-[2-(methylamino)pyrimidin-5-yl]-6-morpholin-4-yl-9-(2,2,2-trifluoroethyl)-9H-purin-8-yl}piperazin-1-yl]acetamide] | ≤ 5 µM | 10 to 30 nM |
| C[C@H](O)C(=O)N1CCN(c2nc3c(N4CCOCC4)nc(-c4cnc(N)nc4)nc3n2CC2CC2)CC1 [Example 88, (2S)-1-{4-[2-(2-Aminopyrimidin-5-yl)-9-(cyclopropylmethyl)-6-morpholin-4-yl-9H-purin-8-yl]piperazin-1-yl}-1-oxopropan-2-ol] | ≤ 5 µM | 30 to 100 nM |
| CC(C)Cn1c(N2CCN(C(=O)CO)CC2)nc2c(N3CCOCC3)nc(-c3cnc(N)nc3)nc21 [Example 89, 2-{4-[2-(2-Aminopyrimidin-5-yl)-9-isobutyl-6-morpholin-4-yl-9H-purin-8-yl]piperazin-1-yl}-2-oxoethanol] | ≤ 5 µM | 10 to 30 nM |
| CC(=O)N1CCN(c2nc3c(N4CCOCC4)nc(-c4cnc(N)nc4)nc3n2CC2CC2)C[C@H]1C [Example 97, 5-{8-[(3R)-4-Acetyl-3-methylpiperazin-1-yl]-9-(cyclopropylmethyl)-6-morpholin-4-yl-9H-purin-2-yl}pyrimidin-2-amine] | ≤ 5 µM | 10 to 30 nM |
| CC(=O)N1[C@H](C)CN(c2nc3c(N4CCOCC4)nc(-c4cnc(N)nc4)nc3n2CC2CC2)C[C@@H]1C [Example 98, 5-{8-[4-Acetyl-cis-3,5-dimethylpiperazin-1-yl]-9-(cyclopropylmethyl)-6-morpholin-4-yl-9H-purin-2-yl}pyrimidin-2-amine] | ≤ 5 µM | < 10 nM |
| CC(=O)N1CCN(c2nc3c(N4CCOCC4)nc(-c4cnc(N)nc4)nc3n2CC(C)C)C[C@H]1C [Example 99, 5-{8-[(3R)-4-Acetyl-3-methylpiperazin-1-yl]-9-isobutyl-6-morpholin-4-yl-9H-purin-2-yl}pyrimidin-2-amine] | ≤ 5 µM | 10 to 30 nM |
| CC(C)Cn1c(N2CCN(C=O)[C@H](C)C2)nc2c(N3CCOCC3)nc(-c3cnc(N)nc3)nc21 [Example 100, (2R)-4-[2-(2-Aminopyrimidin-5-yl)-9-isobutyl-6-morpholin-4-yl-9H-purin-8-yl]-2-methylpiperazine-1-carboaldehyde] | ≤ 5 µM | 10 to 30 nM |
| CC(=O)N1CCN(c2nc3c(N4CCOCC4)nc(-c4cnc(N)nc4)nc3n2CC(C)C)C[C@@H]1C [Example 101, 5-{8-[(3S)-4-Acetyl-3-methylpiperazin-1-yl]-9-isobutyl-6-morpholin-4-yl-9H-purin-2-yl}pyrimidin-2-amine] | ≤ 5 µM | < 10 nM |
| CC(C)Cn1c(N2CCN(C(=O)[C@H](C)O)[C@H](C)C2)nc2c(N3CCOCC3)nc(-c3cnc(N)nc3)nc21 [Example 103, (2S)-1-{(2R)-4-[2-(2-Aminopyrimidin-5-yl)-9-isobutyl-6-morpholin-4-yl-9H-purin-8-yl]-2-methylpiperazin-1-yl}-1-oxopropan-2-ol] | ≤ 5 µM | 10 to 30 nM |
| CNc1ncc(-c2nc(N3CCOCC3)c3nc(N4CCN(S(C)(=O)=O)[C@H](C)C4)n(CC(F)(F)F)c3n2)cn1 [Example 106, N-Methyl-5-{8-[(3R)-3-methyl-4-(methylsulfonyl)piperazin-1-yl]-6-morpholin-4-yl-9-(2,2,2-trifluoroethyl)-9H-purin-2-yl}pyrimidin-2-amine] | ≤ 5 µM | < 10 nM |
| CNc1ncc(-c2nc(N3CCOCC3)c3nc(N4CCN(C(C)=O)[C@@H](C)C4)n(CC(F)(F)F)c3n2)cn1 [Example 107, 5-{8-[(3S)-4-Acetyl-3-methylpiperazin-1-yl]-6-morpholin-4-yl-9-(2,2,2-trifluoroethyl)-9H-purin-2-yl}-N-methylpyrimidin-2-amine] | ≤ 5 µM | < 10 nM |

Results, then the compound that gave them:

| GI50 [1] | IC50 [2] | Compound |
| --- | --- | --- |
| ≤ 5 µM | 10 to 30 nM | CC(C)Cn1c(N2CCN(C(=O)C[C@@H](C)O)CC2)nc2c(N3CCOCC3)nc(-c3cnc(N)nc3)nc21 [Example 81, (2R)-4-{4-[2-(2-Aminopyrimidin-5-yl)-9-isobutyl-6-morpholin-4-yl-9H-purin-8-yl]piperazin-1-yl}-4-oxobutan-2-ol] |
| ≤ 5 µM | 10 to 30 nM | CC(C)Cn1c(N2CCN(C(=O)C[C@H](C)O)CC2)nc2c(N3CCOCC3)nc(-c3cnc(N)nc3)nc21 [Example 82, (2S)-4-{4-[2-(2-Aminopyrimidin-5-yl)-9-isobutyl-6-morpholin-4-yl-9H-purin-8-yl]piperazin-1-yl}-4-oxobutan-2-ol] |
| ≤ 5 µM | < 10 nM | CC(C)Cn1c(N2CCN(C(=O)C[C@@H](C)O)[C@@H](C)C2)nc2c(N3CCOCC3)nc(-c3cnc(N)nc3)nc21 [Example 83, (2R)-4-{(2S)-4-[2-(2-Aminopyrimidin-5-yl)-9-isobutyl-6-morpholin-4-yl-9H-purin-8-yl]-2-methylpiperazin-1-yl}-4-oxobutan-2-ol] |
| ≤ 5 µM | 10 to 30 nM | CC(C)Cn1c(N2CCN(C=O)CC2)nc2c(N3CCOCC3)nc(-c3cnc(N)nc3)nc21 [Example 90, 4-[2-(2-Aminopyrimidin-5-yl)-9-isobutyl-6-morpholin-4-yl-9H-purin-8-yl]piperazine-1-carboaldehyde] |
| ≤ 5 µM | 10 to 30 nM | C[C@H](O)C(=O)N1CCN(c2nc3c(N4CCOCC4)nc(-c4cnc(N)nc4)nc3n2CC2CC2)C[C@@H]1C [Example 92, (2S)-1-{(2S)-4-[2-(2-Aminopyrimidin-5-yl)-9-(cyclopropylmethyl)-6-morpholin-4-yl-9H-purin-8-yl]-2-methylpiperazin-1-yl}-1-oxopropan-2-ol] |
| ≤ 5 µM | 10 to 30 nM | CC(C)Cn1c(N2CCN(C(=O)[C@@H](C)O)CC2)nc2c(N3CCOCC3)nc(-c3cnc(N)nc3)nc21 [Example 93] |
| ≤ 5 µM | 10 to 30 nM | C[C@H](O)C(=O)N1CCN(c2nc3c(N4CCOCC4)nc(-c4cnc(N)nc4)nc3n2CC2CC2)C[C@H]1C [Example 95, (2S)-1-{(2R)-4-[2-(2-Aminopyrimidin-5-yl)-9-(cyclopropylmethyl)-6-morpholin-4-yl-9H-purin-8-yl]-2-methylpiperazin-1-yl}-1-oxopropan-2-ol] |
| ≤ 5 µM | < 10 nM | CC(=O)N1CCN(c2nc3c(N4CCOCC4)nc(-c4cnc(N)nc4)nc3n2CC2CC2)C[C@@H]1C [Example 96, 5-{8-[(3S)-4-Acetyl-3-methylpiperazin-1-yl]-9-(cyclopropylmethyl)-6-morpholin-4-yl-9H-purin-2-yl}pyrimidin-2-amine] |
| ≤ 5 µM | < 10 nM | CC(C)Cn1c(N2CCN(C=O)[C@@H](C)C2)nc2c(N3CCOCC3)nc(-c3cnc(N)nc3)nc21 [Example 102, (2S)-4-[2-(2-Aminopyrimidin-5-yl)-9-isobutyl-6-morpholin-4-yl-9H-purin-8-yl]-2-methylpiperazine-1-carboaldehyde] |
| ≤ 5 µM | 10 to 30 nM | CC(C)Cn1c(N2CCN(C(=O)[C@H](C)O)[C@@H](C)C2)nc2c(N3CCOCC3)nc(-c3cnc(N)nc3)nc21 [Example 104, (2S)-1-{(2S)-4-[2-(2-Aminopyrimidin-5-yl)-9-isobutyl-6-morpholin-4-yl-9H-purin-8-yl]-2-methylpiperazin-1-yl}-1-oxopropan-2-ol] |
| ≤ 5 µM | < 10 nM | CNc1ncc(-c2nc(N3CCOCC3)c3nc(N4CCN(S(C)(=O)=O)[C@@H](C)C4)n(CC(F)(F)F)c3n2)cn1 [Example 105, N-Methyl-5-{8-[(3S)-3-methyl-4-(methylsulfonyl)piperazin-1-yl]-6-morpholin-4-yl-9-(2,2,2-trifluoroethyl)-9H-purin-2-yl}pyrimidin-2-amine] |
| ≤ 5 µM | < 10 nM | CNc1ncc(-c2nc(N3CCOCC3)c3nc(N4CCN(C(C)=O)[C@H](C)C4)n(CC(F)(F)F)c3n2)cn1 [Example 108, 5-{8-[(3R)-4-Acetyl-3-methylpiperazin-1-yl]-6-morpholin-4-yl-9-(2,2,2-trifluoroethyl)-9H-purin-2-yl}-N-methylpyrimidin-2-amine] |
